16 compounds from patent US20230192705A1, “SHP2 INHIBITORS, COMPOSITIONS AND USES THEREOF” (Betta Pharmaceuticals Co., Ltd, priority 2020, published 2023) can be followed below.

Experiment [1] has as its target T1, SHP2 (Homo sapiens, UniProt Q06124).
T1 sequence (Q06124 1-593): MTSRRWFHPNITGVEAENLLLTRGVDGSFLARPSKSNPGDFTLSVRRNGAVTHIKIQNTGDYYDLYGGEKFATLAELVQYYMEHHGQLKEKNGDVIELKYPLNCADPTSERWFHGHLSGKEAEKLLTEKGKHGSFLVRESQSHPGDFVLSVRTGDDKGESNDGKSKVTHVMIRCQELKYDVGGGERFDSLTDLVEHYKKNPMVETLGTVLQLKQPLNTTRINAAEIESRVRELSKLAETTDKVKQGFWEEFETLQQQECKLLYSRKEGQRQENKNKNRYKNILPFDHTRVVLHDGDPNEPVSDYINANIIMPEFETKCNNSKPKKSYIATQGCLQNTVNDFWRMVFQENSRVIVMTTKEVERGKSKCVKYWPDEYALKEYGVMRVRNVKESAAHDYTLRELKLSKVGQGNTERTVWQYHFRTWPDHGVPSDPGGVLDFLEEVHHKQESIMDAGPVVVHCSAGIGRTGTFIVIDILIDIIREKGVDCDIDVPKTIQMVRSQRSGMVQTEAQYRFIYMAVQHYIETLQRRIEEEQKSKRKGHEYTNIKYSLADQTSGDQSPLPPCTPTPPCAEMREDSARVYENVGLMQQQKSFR
Description: SHP2 allosteric inhibitor enzyme activity assay (DiFMUP fluorescence). In kind it is biochemical. In short, it runs like this: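 SHP2 activated by 0.5 μM IRS1_pY1172(dPEG8)pY1222 peptide, 0.2 ng enzyme per well, 1 h at room temperature with compound (1 μM top, 3-fold series), then DiFMUP substrate 1 h. Buffer: 60 mM HEPES, 75 mM NaCl, 75 mM KCl, 0.05% BRIJ-35, 1 mM EDTA, 5 mM DTT. Fluorescence ex 340/em 450 nm; IC50 by variable-slope fit.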

The target in experiment [2] is T2, hERG channel (Homo sapiens, UniProt Q12809).
T2 construct: expressed in transfected cells; host or cells: HEK-293
Nature of the experiment: Patch clamp assay to test the effect of compound on hERG channel. In kind it is cell-based. The conditions noted are these: manual patch clamp, HEK 293 cells expressed with hERG, concentration for half maximum effect. In outline:
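Whole-cell patch clamp on hERG-expressing HEK-293 cells at 22-23 °C, perfused with 4-6 escalating concentrations (0.3-30 μM final) after a 2 min vehicle period. Tail currents elicited by 2 s depolarizing steps from −80 mV, measured at a −50 mV repolarization; fraction of control current fitted by Hill equation for half-maximal concentration.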
On the technique in general: In patch-clamp work, channel activity is measured electrically.

Each structure is given as a SMILES string. A value given as a limit tells only on which side of the number the result lay.

T2 sequence (Q12809 whole entry): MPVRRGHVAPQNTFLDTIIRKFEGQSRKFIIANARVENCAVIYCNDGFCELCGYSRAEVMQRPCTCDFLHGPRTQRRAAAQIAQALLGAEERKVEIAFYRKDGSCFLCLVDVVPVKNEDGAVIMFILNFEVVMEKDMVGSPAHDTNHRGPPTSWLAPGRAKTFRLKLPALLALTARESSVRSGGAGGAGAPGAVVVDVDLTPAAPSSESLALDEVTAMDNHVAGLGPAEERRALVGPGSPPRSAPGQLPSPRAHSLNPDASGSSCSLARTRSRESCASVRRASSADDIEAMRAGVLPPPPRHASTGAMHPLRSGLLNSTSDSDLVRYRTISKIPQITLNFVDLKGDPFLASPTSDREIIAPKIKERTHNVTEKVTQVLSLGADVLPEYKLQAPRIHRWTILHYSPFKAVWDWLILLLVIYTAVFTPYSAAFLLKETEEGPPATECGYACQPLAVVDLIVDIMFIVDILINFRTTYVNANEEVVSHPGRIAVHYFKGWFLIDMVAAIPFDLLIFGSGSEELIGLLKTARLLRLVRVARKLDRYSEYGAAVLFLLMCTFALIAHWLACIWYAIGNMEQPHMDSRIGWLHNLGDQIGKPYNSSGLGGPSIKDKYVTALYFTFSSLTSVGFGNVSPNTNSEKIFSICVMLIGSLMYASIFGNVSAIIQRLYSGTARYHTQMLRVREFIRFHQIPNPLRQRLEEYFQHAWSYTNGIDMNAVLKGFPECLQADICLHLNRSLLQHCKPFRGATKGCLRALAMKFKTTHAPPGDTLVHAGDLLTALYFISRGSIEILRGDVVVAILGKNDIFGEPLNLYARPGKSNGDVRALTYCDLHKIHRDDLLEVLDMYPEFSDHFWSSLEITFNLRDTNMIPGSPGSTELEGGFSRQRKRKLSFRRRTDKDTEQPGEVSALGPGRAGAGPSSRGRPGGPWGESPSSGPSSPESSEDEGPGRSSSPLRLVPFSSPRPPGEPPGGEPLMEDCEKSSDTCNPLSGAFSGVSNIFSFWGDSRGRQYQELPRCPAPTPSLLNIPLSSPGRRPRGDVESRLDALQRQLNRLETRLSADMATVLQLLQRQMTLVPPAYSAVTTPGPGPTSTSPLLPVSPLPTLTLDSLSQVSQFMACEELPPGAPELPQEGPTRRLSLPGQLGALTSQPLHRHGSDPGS

The IC50 is the midpoint of a concentration-inhibition curve. Consider `N[C@@H]1c2ccccc2CC12CCN(c1nc3[nH]nc(C4(c5cccc(F)c5)CC4)c3c(=O)[nH]1)CC2` [Example 6, (S)-6-(1-amino-1,3-dihydrospiro[indene-2,4′-piperidin]-1′-yl)-3-(1-(3-fluorophenyl)cyclopropyl)-1,5-dihydro-4H-pyrazolo[3,4-d]pyrimidin-4-one], for which the IC50 in experiment [1] (numeric values) came out at 0.62 nM. For the compound `N[C@@H]1c2ccccc2CC12CCN(c1nc3[nH]nc(C4(c5ccc(O)cc5)CC4)c3c(=O)[nH]1)CC2` [Example 234, (S)-6-(1-amino-1,3-dihydrospiro[indene-2,4′-piperidin]-1′-yl)-3-(1-(4-hydroxyphenyl)cyclopropyl)-1,5-dihydro-4H-pyrazolo[3,4-d]pyrimidin-4-one], the IC50 in experiment [1] (class symbols) is not above 20 nM; in experiment [2] it was more than 30000 nM.

Turning to `N[C@@H]1c2ccccc2CC12CCN(c1nc3[nH]nc(C4(c5cccc(C(F)(F)F)c5)CC4)c3c(=O)[nH]1)CC2` [Example 8, (S)-6-(1-amino-1,3-dihydrospiro[indene-2,4′-piperidin]-1′-yl)-3-(1-(3-(trifluoromethyl)plienyl)cyclo-propyl)-1,5-dihydro-4H-pyrazolo[3,4-d]pyrimidin-4-one], half-maximal inhibition in experiment [1] (numeric values) (IC50) was put at 2.2 nM.

As to `N[C@@H]1c2ccccc2CC12CCN(c1nc3[nH]nc(C4(c5ccc(Cl)c(Cl)c5)CC4)c3c(=O)[nH]1)CC2` [Example 21, (S)-6-(1-amino-1,3-dihydrospiro[indene-2,4′-piperidin]-1′-yl)-3-(1-(3,4-dichlorophenyl)cyclopropyl)-1,5-dihydro-4H-pyrazolo[3,4-d]pyrimidin-4-one], the IC50 in experiment [1] (class symbols) was not above 20 nM. In the case of `N#Cc1ccc(C2(c3n[nH]c4nc(N5CCC6(CC5)Cc5ccccc5[C@H]6N)[nH]c(=O)c34)CC2)cc1` [Example 237, (S)-4-(1-(6-(1-amino-1,3-dihydrospiro[indene-2,4′-piperidin]-1′-yl)-4-oxo-4,5-dihydro-1H-pyrazolo[3,4-d]pyrimidin-3-yl)cyclopropyl)benzonitrile], the IC50 in experiment [1] (class symbols) is not above 20 nM; in experiment [2] it was 7900 nM. Turning to `N[C@@H]1c2ccccc2CC12CCN(c1nc3[nH]nc(C4(c5cccs5)CC4)c3c(=O)[nH]1)CC2` [Example 24, (S)-6-(1-amino-1,3-dihydrospiro[indene-2,4′-piperidin]-1′-yl)-3-(1-(thiophen-2-yl)cyclopropyl)-1,5-dihydro-4H-pyrazolo[3,4-d]pyrimidin-4-one], the IC50 in experiment [1] (numeric values) worked out at 1.6 nM; in experiment [2], 14800 nM.

With `N[C@@H]1c2ccccc2CC12CCN(c1nc3[nH]nc(C4(c5ccc(C(F)(F)F)cc5)CC4)c3c(=O)[nH]1)CC2` [Example 228, (S)-6-(1-amino-1,3-dihydrospiro[indene-2,4′-piperidin]-1′-yl)-3-(1-(4-(trifluoromethyl)phenyl)cyclo-propyl)-1,5-dihydro-4H-pyrazolo[3,4-d]pyrimidin-4-one], the IC50 in experiment [1] (class symbols) is not above 20 nM.

On to `N[C@@H]1c2ccccc2CC12CCN(c1nc3[nH]nc(C4(c5ccc6c(c5)OCO6)CC4)c3c(=O)[nH]1)CC2` [Example 34, (S)-6-(1-amino-1,3-dihydrospiro[indene-2,4′-piperidin]-1′-yl)-3-(1-(benzo[d][1,3]dioxol-5-yl)cyclopropyl)-1,5-dihydro-4H-pyrazolo[3,4-d]pyrimidin-4-one], for which the IC50 in experiment [1] (numeric values) worked out at 2.7 nM; in experiment [2], 6900 nM.

Consider `N[C@@H]1c2ccccc2CC12CCN(c1nc3[nH]nc(C4(c5csnn5)CC4)c3c(=O)[nH]1)CC2` [Example 240, (S)-3-(1-(1,2,3-thiadiazol-4-yl)cyclopropyl)-6-(1-amino-1,3-dihydrospiro[indene-2,4′-piperidin]-1′-yl)-1,5-dihydro-4H-pyrazolo[3,4-d]pyrimidin-4-one], for which the IC50 in experiment [1] (class symbols) is not above 20 nM; in experiment [2] it was 17100 nM. For `N[C@@H]1c2ccccc2CC12CCN(c1nc3[nH]nc(C4(c5ccccc5)CC4(F)F)c3c(=O)[nH]1)CC2` (stereo partly drawn) [Example 9, 6-((S)-1-amino-1,3-dihydrospiro[indene-2,4′-piperidin]-1′-yl)-3-(2,2-difluoro-1-phenylcyclopropyl)-1,5-dihydro-4H-pyrazolo[3,4-d]pyrimidin-4-one], in that order: not above 20 nM and 10400 nM. For `Nc1ccc(C2(c3n[nH]c4nc(N5CCC6(CC5)Cc5ccccc5[C@H]6N)[nH]c(=O)c34)CC2)cc1` [Example 230, (S)-6-(1-amino-1,3-dihydrospiro[indene-2,4′-piperidin]-1′-yl)-3-(1-(4-aminophenyl)cyclopropyl)-1,5-dihydro-4H-pyrazolo[3,4-d]pyrimidin-4-one] the same measures were not above 20 nM and more than 30000 nM. As for `N[C@@H]1c2ccccc2CC12CCN(c1nc3[nH]nc(C4(c5ccccc5)CC4)c3c(=O)[nH]1)CC2` [Example 33], the IC50 was 0.9 nM in experiment [1] (numeric values) and 9500 nM in experiment [2].

Consider `Cn1c(N2CCC3(CC2)Cc2ccccc2[C@H]3N)nc2[nH]nc(C3(c4ccccc4)CC3)c2c1=O` [Example 1], for which the IC50 was not above 20 nM in experiment [1] (class symbols) and 1760 nM in experiment [2]. For `N[C@@H]1c2ccccc2CC12CCN(c1nc3[nH]nc(C4(c5ccccc5)COC4)c3c(=O)[nH]1)CC2` [Example 96, (S)-6-(1-amino-1,3-dihydrospiro[indene-2,4′-piperidin]-1′-yl)-3-(3-phenyloxetan-3-yl)-1,5-dihydro-4H-pyrazolo[3,4-d]pyrimidin-4-one] the same measures were not above 20 nM and more than 30000 nM. `N[C@@H]1c2ccccc2CC12CCN(c1nc3[nH]nc(C4(c5ccc6c(c5)OC(F)(F)O6)CC4)c3c(=O)[nH]1)CC2` [Example 13, (S)-6-(1-amino-1,3-dihydrospiro[indene-2,4′-piperidin]-1′-yl)-3-(1-(2,2-difluorobenzo[d][1,3]dioxol-5-yl)cyclopropyl)-1,5-dihydro-4H-pyrazolo[3,4-d]pyrimidin-4-one]: the IC50 in experiment [1] (class symbols) was not above 20 nM. Same read-out and setting: under `N[C@@H]1c2ccccc2CC12CCN(c1nc3[nH]nc(C4(c5ccc(F)cc5)CC4)c3c(=O)[nH]1)CC2` [Example 11, (S)-6-(1-amino-1,3-dihydrospiro[indene-2,4′-piperidin]-1′-yl)-3-(1-(4-fluorophenyl)cyclopropyl)-1,5-dihydro-4H-pyrazolo[3,4-d]pyrimidin-4-one] stands not above 20 nM.
